The target in one series is rat brain α7 receptors (Rattus norvegicus, UniProt Q05941). The series can be described thus: BTX binding, rat hippocampal membranes. On the procedure:
AZD0328 is a reversible, high affinity ligand of human recombinant and rat brain α7 receptors. […]. Systemic administration of AZD0328 occupied rat brain α7 receptors and increased the number of α7 receptor binding sites. Very low doses of AZD0328 (0.00048-0.0016 mg/kg) improved spatial working memory performance in rhesus monkeys. The pharmacological profile of AZD0328 illustrates its potential utility to improve cognitive function by activating the α7 receptor.
(§1) . In Xenopus oocytes injected with human, recombinant α7 receptor mRNA, AZD0328 activates whole cell currents (Table 2). […] In acutely dissociated rat hippocampal interneurons, AZD0328 elicits rapidly activated, desensitizing whole-cell current (Table 1), consistent with the known properties of rat neuronal α7 receptors. […] AZD0328 modulates synaptic function, consistent with the well-known role of α7 receptors as heteroreceptor modulators of glutamatergic and GABAergic synaptic function.

A further series deals with α7 receptor (Rattus norvegicus, UniProt Q05941). As to the kind of experiment: Hippocampal slice GABA sIPSC frequency. It counts as cell-based. Particulars: 5 μM.
Text: as §1, with “In membranes prepared either from cultured, human recombinant α7 receptor-expressing, human embryonic kidney cells α7-HEK) or from rat brain hippocampus, AZD0328 competed with binding of an iodinated form of the high-affinity, selective α7 receptor antagonist snake toxin, [^125I]-α-bungarotoxin (BTX) (Table 1). In” for “. In”

For series [1], the target named is T1, human recombinant 5-HT3A/B receptors (Homo sapiens, UniProt O95264+P46098).
T1 construct: expressed in transfected cells
The series can be described thus: Functional assays at recombinant human receptors. It counts as biochemical. Particulars: recombinant human receptors in vitro.

In another series the test system is mice. The series can be described thus: Novel Object Recognition (NOR). Particulars: 0.00178 mg/kg sc. It counts as in vivo, mouse. The source says:
We have now discovered that much lower doses of AZD0328 that provide much lower plasma concentrations, can improve performance of cognitive tasks in mice, rats, and monkeys. AZD0328 at low doses increased novel object recognition in mice. In this procedure, mice were habituated to a chamber in which they were then allowed to “sample” two objects before being removed from the chamber. After a delay during which one of the objects was replaced with a novel object, the mice were returned to the chamber for testing. If the delay was brief, mice spent more time exploring the novel object than the familiar object, which is thought to indicate that the mice “recognize” […], a measure of episodic memory.
AZD0328 increased novel object recognition in mice (Table 2). In this procedure, mice were habituated to a chamber in which they were then allowed to “sample” two objects before being removed from the chamber. After a delay during which one of the objects was replaced with a novel object, the mice were returned to the chamber for testing. If the delay was brief, mice spent more time exploring the novel object than the familiar object, which is thought to indicate that the mice “recognize” that the novel object is novel.

Series [2] in a line: Cardiovascular effects in telemetered rats. It counts as in vivo, rat. The conditions noted are these: plasma, rat. The method, then: (§2) Effects of single oral doses of AZD0328 on mean, systolic and diastolic arterial blood pressures, heart rate, body temperature, locomotor activity and respiratory parameters were evaluated in rats by combining whole body plethysmography with telemetry (Table 3). […] The degree of hypertension, however, was similar at the 3 highest doses, which partly can be explained by the high individual variation in plasma exposure at each dose level. The effect on heart rate was, on the other hand, dose-related.

A further series relates to rats. The series can be described thus: Cardiovascular effects in telemetered rats. It counts as in vivo, rat. The method, then:
as §2

The next series can be described thus: Single dose PK/TK, dog. It counts as in vivo. The conditions noted are these: for AUC / Cmax / Tmax: dog, in vivo, po. An excerpt:
This section provides a summary of the pharmacokinetic and metabolism properties of AZD0328 derived from in vivo studies. […] The derived PK/TK parameters from these studies are presented in Table 4 for single dose studies (DMR4, 0619LR, 20030191PCR, DMO16, DMB10, DMW12, 50190, 0190DD and 03.330/1), and are presented in Table 5 multiple dose PK/TK studies (DMR4, 0612AR, DMB15, 50190, 0190DD and 0295AD).

For series [3], the target named is T2, human recombinant α7 receptor (Homo sapiens, UniProt P36544). The series can be described thus: [3H]-AZ11637326 binding, α7-HEK. Also on record: expressed in transfected cells.
Series [4] deals with T2, human recombinant α7 receptor. As to the kind of experiment: Whole cell current activation kinetics, α7-HEK cells. It is filed as cell-based. Further details: expressed in transfected cells; host or cells: Xenopus oocytes (mRNA injected).
Setting [5] is: both sexes, 1.08 mg/kg, dog 2F+2M, 0190DD, oral 1.08 mg/kg (5 μmol/kg) split in two 6 h apart, capsules, fasted.
Where [6] appears, read: both sexes, 1.08 mg/kg, dog 2F+2M, 0190DD, oral 1.08 mg/kg (5 μmol/kg) split in two 6 h apart, capsules, fed.
Where [7] appears, read: both sexes, 1.08 mg/kg, dog 2F+2M, 0190DD, oral 1.08 mg/kg (5 μmol/kg) split in two 6 h apart, solution, fasted.

Values joined by “and” are separate entries in the source; they are usually repeats but may differ in a detail not shown here. Equal entries are not always repeated.

The results in this text go back to patent US20080242688A1, “Method 741” (ASTRAZENECA AB, priority 2007, published 2008).

T2 sequence (P36544 23-502): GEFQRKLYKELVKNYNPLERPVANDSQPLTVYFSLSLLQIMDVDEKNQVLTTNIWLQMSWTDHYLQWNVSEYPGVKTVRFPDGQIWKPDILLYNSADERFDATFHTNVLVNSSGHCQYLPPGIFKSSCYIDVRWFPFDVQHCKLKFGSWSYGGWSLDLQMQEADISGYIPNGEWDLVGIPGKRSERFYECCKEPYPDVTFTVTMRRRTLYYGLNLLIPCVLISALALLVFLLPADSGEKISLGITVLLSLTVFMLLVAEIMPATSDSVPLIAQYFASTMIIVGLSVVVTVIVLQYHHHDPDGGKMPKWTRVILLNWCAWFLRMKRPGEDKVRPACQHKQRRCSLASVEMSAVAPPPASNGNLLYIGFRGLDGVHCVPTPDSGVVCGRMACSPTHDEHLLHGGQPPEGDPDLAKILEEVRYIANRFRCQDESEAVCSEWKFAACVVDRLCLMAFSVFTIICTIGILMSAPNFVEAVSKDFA
α7 receptor, sequence (Q05941 23-502): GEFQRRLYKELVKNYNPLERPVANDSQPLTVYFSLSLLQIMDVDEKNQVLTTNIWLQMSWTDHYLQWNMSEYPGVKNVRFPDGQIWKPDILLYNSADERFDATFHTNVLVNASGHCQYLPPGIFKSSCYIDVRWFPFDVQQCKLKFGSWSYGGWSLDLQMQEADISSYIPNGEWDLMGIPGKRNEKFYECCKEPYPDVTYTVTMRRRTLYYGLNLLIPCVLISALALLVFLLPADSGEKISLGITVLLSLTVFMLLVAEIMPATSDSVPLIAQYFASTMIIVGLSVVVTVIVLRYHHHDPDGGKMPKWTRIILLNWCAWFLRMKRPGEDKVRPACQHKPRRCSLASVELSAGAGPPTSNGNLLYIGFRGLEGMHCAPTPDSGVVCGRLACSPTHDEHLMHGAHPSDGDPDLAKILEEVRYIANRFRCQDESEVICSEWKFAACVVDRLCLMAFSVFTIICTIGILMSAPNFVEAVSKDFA
rat brain α7 receptors, sequence (Q05941 23-502): as above
T1 sequence (P46098 24-478): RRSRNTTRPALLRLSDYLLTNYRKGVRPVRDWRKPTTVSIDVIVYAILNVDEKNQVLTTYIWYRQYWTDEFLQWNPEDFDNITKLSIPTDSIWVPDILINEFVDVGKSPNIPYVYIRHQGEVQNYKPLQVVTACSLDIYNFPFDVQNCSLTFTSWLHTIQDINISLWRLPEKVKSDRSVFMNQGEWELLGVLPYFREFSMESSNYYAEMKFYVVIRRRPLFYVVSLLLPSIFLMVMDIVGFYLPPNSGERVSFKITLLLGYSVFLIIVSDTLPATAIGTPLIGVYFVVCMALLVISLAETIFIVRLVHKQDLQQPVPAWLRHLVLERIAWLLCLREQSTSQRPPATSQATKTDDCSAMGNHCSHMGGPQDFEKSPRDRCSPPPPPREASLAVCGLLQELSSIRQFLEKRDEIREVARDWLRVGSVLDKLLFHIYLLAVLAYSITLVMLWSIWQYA
T1 sequence (O95264 22-441): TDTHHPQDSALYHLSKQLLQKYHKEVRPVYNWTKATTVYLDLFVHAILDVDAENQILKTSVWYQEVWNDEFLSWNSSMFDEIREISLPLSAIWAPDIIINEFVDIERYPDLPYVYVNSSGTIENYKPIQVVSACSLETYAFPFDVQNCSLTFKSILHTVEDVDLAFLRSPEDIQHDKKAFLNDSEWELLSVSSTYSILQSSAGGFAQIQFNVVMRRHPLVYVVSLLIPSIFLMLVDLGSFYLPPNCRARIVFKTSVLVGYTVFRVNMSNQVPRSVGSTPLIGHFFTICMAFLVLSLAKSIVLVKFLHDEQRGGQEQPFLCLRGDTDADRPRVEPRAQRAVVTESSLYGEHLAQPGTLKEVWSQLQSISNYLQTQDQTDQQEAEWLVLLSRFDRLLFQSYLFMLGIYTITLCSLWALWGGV

As usually defined, the Ki is the dissociation constant of the complex between target and ligand, obtained from inhibition or displacement. The AUC is the area under the concentration-time curve, a measure of exposure. A low value points to less exposure. In general, Tmax refers to the time from dosing to the highest level. For `c1cnc2c(c1)C[C@@]1(CN3CCC1CC3)O2` [AZD0328, (R)-Spiro[1-azabicyclo[2.2.2]octane-3,2′(3′H)-furo[2,3-b]pyridine]], the figures for the Ki (at rat brain α7 receptors; in [3]) were 4.7 nM and 6.4 nM, respectively. Moreover, the “GABA sIPSC frequency” value on α7 receptor came to 251 % baseline. The “functional potency at α7 versus 5-HT3A/B receptors” value in [1] is reported as “equipotent”. Also, in the series on mice, the “time of administration prior to object sampling at which object recognition index was still significantly increased” value was not above 48 h. Also, the Cmax in series [2] (po, highest dose, read-out: total Cmax) was 31.2 µM; in series [2] (oral, 1.1 mg/kg, read-out: NOAEL (effect<10%) on cardiovascular function, total Cmax) it was 0.5 µM; in the series “Single dose PK/TK, dog” (setting [5]), 19.2 ng/mL and 89 nM; in “Single dose PK/TK, dog” (setting [6]) it was 26.9 ng/mL and 124 nM; in the series “Single dose PK/TK, dog” (setting [7]), 33.1 ng/mL and 153 nM. The “increase in HR” value with rats (rat, highest dose (total Cmax 31.2 μM)) is given as 19%. Further, the “dose without CV effect” value with rats (rat, oral gavage) worked out at 1.1 mg/kg. In the series with rats (telemetered rats), the “duration of BP and HR increase postdose” value is listed as “increased for up to 6 h postdose”. Further, the AUC in “Single dose PK/TK, dog” (setting [5]) is 68.1 ng·h/mL and 0.315 µM·h; in the series “Single dose PK/TK, dog” (setting [6]), 177 ng·h/mL and 0.818 µM·h; in “Single dose PK/TK, dog” (setting [7]) it was 104 ng·h/mL and 0.483 µM·h; in the series “Single dose PK/TK, dog” (male, 17.3 mg/kg, dog 4M, 0279ZD, single oral 17.3 mg/kg (80 μmol/kg)), 2530 ng·h/mL and 11.7 µM·h; in “Single dose PK/TK, dog” (male, 34.6 mg/kg, dog 4M, 0279ZD, single oral 34.6 mg/kg (160 μmol/kg)), 8280 ng·h/mL and 38.3 µM·h. Besides, the Tmax in the series “Single dose PK/TK, dog” (setting [5]) was 60 to 180 min; in “Single dose PK/TK, dog” (setting [6]), 30 to 360 min; in “Single dose PK/TK, dog” (setting [7]), 30 min. The F amounted to 0.146 ± 0.043% in “Single dose PK/TK, dog” (dog 4M, 0279ZD, single oral 17.3 mg/kg (80 μmol/kg)) and 0.239 ± 0.099% in “Single dose PK/TK, dog” (dog 4M, 0279ZD, single oral 34.6 mg/kg (160 μmol/kg)). For the same compound, in [4], the “10-90% rise time, whole cell current” value is 1.5 ms.
